In data set [1] the test system is ACE. Conditions: cited from earlier work. The text has this:
Trp-Pro-Met-Gly-Phe (636.75 Da) is one such example, obtained from the trypsin hydrolysates of Cyclina sinensis, along with Val-Val-Ser-Leu-Ser-Ile-Pro-Arg (869.53 Da) which comes from pigeon pea seeds. There have been some ACE-inhibitory peptides reported to carry out their ACE-inhibitory activity through an uncompetitive pattern, including Ala-Trp, Phe-Tyr, and Ile-Trp which are derived from wakame hydrolysates of (Undaria pinnatifida) using protease, and also Phe-Glu-Ser-As ...

Data set [2] concerns the target T1, ACE (E.C. 3.4.15.1) derived from rabbit lungs (Oryctolagus cuniculus, UniProt P12822).
T1 construct: ACE (E.C. 3.4.15.1) derived from rabbit lungs; purchased Sigma Chemical Co. (St. Louis, MO, USA); host or cells: rabbit lung tissue
T1 sequence (P12822 34-1310): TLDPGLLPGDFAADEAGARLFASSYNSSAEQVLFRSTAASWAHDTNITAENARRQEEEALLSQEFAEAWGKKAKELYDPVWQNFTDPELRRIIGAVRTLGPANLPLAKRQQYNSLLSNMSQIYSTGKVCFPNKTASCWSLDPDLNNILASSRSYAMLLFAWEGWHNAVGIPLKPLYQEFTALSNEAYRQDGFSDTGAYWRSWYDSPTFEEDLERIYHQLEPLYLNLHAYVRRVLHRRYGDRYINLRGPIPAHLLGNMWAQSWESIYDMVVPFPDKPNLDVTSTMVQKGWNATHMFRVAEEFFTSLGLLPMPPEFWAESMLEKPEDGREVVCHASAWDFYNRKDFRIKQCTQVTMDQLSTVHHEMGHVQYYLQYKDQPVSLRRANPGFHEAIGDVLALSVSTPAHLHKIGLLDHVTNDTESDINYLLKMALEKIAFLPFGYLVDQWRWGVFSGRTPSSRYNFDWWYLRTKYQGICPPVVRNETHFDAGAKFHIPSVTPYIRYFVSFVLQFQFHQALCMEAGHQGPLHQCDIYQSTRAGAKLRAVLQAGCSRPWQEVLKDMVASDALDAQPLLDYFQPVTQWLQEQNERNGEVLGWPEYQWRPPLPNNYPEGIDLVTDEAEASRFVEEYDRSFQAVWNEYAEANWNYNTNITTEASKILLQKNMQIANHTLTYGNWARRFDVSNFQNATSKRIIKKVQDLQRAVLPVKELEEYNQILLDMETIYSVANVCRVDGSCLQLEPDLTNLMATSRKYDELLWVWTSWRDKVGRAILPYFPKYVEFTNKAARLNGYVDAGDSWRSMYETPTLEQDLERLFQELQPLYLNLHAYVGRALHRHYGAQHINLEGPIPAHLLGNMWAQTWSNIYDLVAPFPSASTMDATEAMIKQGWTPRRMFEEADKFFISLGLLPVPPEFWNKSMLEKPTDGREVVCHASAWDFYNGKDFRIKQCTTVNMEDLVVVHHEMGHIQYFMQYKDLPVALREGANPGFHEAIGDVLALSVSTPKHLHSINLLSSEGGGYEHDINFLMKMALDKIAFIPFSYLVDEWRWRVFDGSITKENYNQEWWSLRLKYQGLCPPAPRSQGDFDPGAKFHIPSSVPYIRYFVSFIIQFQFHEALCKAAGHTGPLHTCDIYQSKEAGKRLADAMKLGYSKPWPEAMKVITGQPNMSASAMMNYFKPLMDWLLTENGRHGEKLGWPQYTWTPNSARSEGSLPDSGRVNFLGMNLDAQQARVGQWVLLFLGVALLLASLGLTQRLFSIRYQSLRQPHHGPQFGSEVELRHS
As to the kind of experiment: ACE inhibition kinetics (Lineweaver-Burk). Conditions: secondary plot 1/Vmax vs peptide concentration; 37°C; n = 3. In kind it is biochemical. The text has this:
(§1) The chemicals used in the study included ACE (E.C. 3.4.15.1) derived from rabbit lungs, acetonitrile, bovine serum albumin (BSA), captopril, dithiothreitol (DTT), hippuric acid, hippuryl-L-histidyl-L-leucine (HHL), o-phthaldehyde (OPA), sodium dodecyl sulfate (SDS), sodium tetraborate decahydrate, 2, 4, 6-trinitrobenzenesulfonic acid (TNBS), and Trypsin from porcine pancreas (1500 U/mg), all of which were obtained from Sigma Chemical Co. (St. Louis, MO, USA). In addition, dithiothreitol (DTT) and L-serine were purchased from Merck (Germany). All chemicals used were of analytical grade.
ACE-inhibition kinetics were evaluated using varied HHL concentrations (0.5, 1, 3, 5, and 7 mM) to which varied FCLYELAR peptide concentrations were introduced (0.05, 0.1 and 0.2 mM). The reaction assay required that the peptide concentrations which had been dissolved in PBS undergo incubation with the ACE solution which contained the different HHL concentrations which had been dissolved in the reaction buffer. Aliquots of sodium sulfite and TNBS were subsequently added prior to 80minutes of incubation at a temperature of 37°C, allowing the level of ACE-inhibitory activity to be evaluated. […] Secondary plots were then used to determine the inhibitor constant (Ki). […]

Data set [3] addresses T1, ACE (E.C. 3.4.15.1) derived from rabbit lungs. As to the kind of experiment: ACE-inhibitory activity assay (HHL substrate, TNBS). In kind it is biochemical. Conditions: synthetic peptide, purity at least 95%; 5 mM HHL, pH 8.3, 37°C, 1 h, 420 nm.
Excerpt: as §1
The ACE -inhibition test was performed following the approach of Ibrahim et al.. At the beginning of the inhibition assay, a 10 μL aliquot of the peptide sample was added to 31 μL of 50 mM potassium phosphate buffer with a pH of 8.3 containing 0.3 M NaCl in each well of the 96-well microplate, while PBS was used for the control reaction. […] The ACE -inhibitory activity was determined by measuring the absorbance at 420 nm. […] The following Eq (3) was used to calculate the percentage of ACE -inhibitory activity: ACE-inhibitoryactivity%=C−Bi−S−Bs/C−Bi×100 (3) in which the absorbance of the control is given by C (100% activity), the sample (inhibitor peptide) is given by S, the blank inhibitor (HHL alone) is given by Bi, and the blank sample (peptide alone) is represented by Bs. […]

Data set [4] is described as follows: Solubility in ultrapure water. The following applies: read-out: Solubility in ultrapure water (good solubility at concentrations not exceeding the value). In kind it is physicochemical.
The subject of data set [5] is ACE. The following applies: cited from earlier work. The text has this: For example, Phe-Leu was isolated from the hydrolysate of chum salmon muscle by Ono et al.. […] In addition, peptides offering antihypertensive capabilities obtained from ...
This is another data set of the same source.

The mark [6] stands for this setting: hen egg white lysozyme (HEWL) hydrolysates.

Like-named read-outs stand apart in the source and are kept apart here. Ends that are not written are not given here.

For Ala-Trp, in the data set on ACE [1] (wakame hydrolysates), the Inhibition pattern entry was “uncompetitive”.
For the substance “FCLYELAR [FCLYELAR, Phe-Cys-Leu-Tyr-Glu-Leu-Ala-Arg]”, the inhibitory constant (Ki) in data set [2] stood at 24.8 µM. In data set [3], this substance came in with an IC50 of 31.63 ± 0.15 µM. The solubility in data set [4] was at least 5000 µg/mL.
As for “FESNFNTQATNR [from lysozyme (HEWL) hydrolysates of hens’ eggs]”, in the data set on ACE [1] (setting [6]), the Inhibition pattern entry was “uncompetitive” and the inhibition constant (Ki) is 82 µg/mL.
Take “FGASTRGA [from Alaska pollack hydrolysates with pepsin]”: in the data set on ACE [5] (Alaska pollack hydrolysate, pepsin), the IC50 is 14.7 µM.
Consider FGMPLDR [from Ulva intestinalis], for which the IC50 in the data set on ACE [5] (Ulva intestinalis) was 219 µM.
Turning to “Gly-Asp-Leu-Gly-Lys-Thr-Thr-Thr-Val-Ser-Asn-Trp-Ser-Pro-Pro-Lys-Try-Lys-Asp-Thr-Pro [from tuna frame protein]”, in the data set on ACE [5] (tuna frame protein), the IC50 was 11.3 µM.
As for Ile-Trp, the Inhibition pattern result in the data set on ACE [1] (wakame hydrolysates) was “uncompetitive”.
For the substance MELVLR [from Ulva intestinalis], the 50% inhibitory concentration (IC50) in the data set with ACE [5] (Ulva intestinalis) is 237 µM.
For the substance “MEVFVP [from flounder muscle hydrolysates]”, the IC50 in the data set with ACE [5] (flounder muscle hydrolysate) is 79 µM.
In the case of Phe-Leu, the 50% inhibitory concentration (IC50) in the data set with ACE [5] (chum salmon muscle hydrolysate, thermolysin) was 13.6 µM.
With Phe-Tyr, in the data set with ACE [1] (wakame hydrolysates), the Inhibition pattern entry is recorded as “uncompetitive”.
On to “Trp-Pro-Met-Gly-Phe [from trypsin hydrolysates of Cyclina sinensis]”, for which the Inhibition pattern result in the data set with ACE [1] (Cyclina sinensis trypsin hydrolysates) is “competitive”.
Consider “VSQLTR [from flounder muscle hydrolysates]”, for which the half-maximal inhibitory concentration (IC50) with ACE [5] (flounder muscle hydrolysate) is 105 µM.
With VVSLSIPR [from pigeon pea seeds], in the data set on ACE [1] (pigeon pea seeds), the Inhibition pattern entry is on record as “competitive”.
In the case of “YLYEIARR [from the tryptic hydrolysate found in human plasma]”, the Inhibition pattern entry in the data set with ACE [1] (tryptic hydrolysate of human plasma) is given as “uncompetitive”.

The values are drawn from publication PMC8412326, “A novel angiotensin I-converting enzyme inhibitory peptide derived from the trypsin hydrolysates of salmon bone proteins” (PLoS ONE, 2021).
